In brackets after ≈: the same amount, converted by molar mass.
How the values were obtained:
[1] = test system: Saccharomyces cerevisiae local isolate; assay: Agar well diffusion, S. cerevisiae; type: cell-based; settings: well diffusion, 100 μL of 10 mg/mL in DMSO, S. cerevisiae, read-out: diameter of inhibition zone, SC
Text: (§1) The new molecules were individually tested for their antimicrobial activity in vitro against standard bacteria strains from the American Type Culture Collection (ATCC), namely, Staphylococcus aureus ATCC 29213, Bacillus subtilis ATCC 6633, Bacillus megaterium ATCC 9885 (Gram-positive), Escherichia coli ATCC 2592, and Pseudomonas aeruginosa ATCC 27,953 (Gram-negative). The compounds were also microbiologically tested against locally isolated Saccharomyces cerevisiae (yeast) and the standard Agricultural Research Service Culture Collection (NRRL) strain of the yeast-like pathogenic fungus Candida albicans NRRL Y-477. Primary screening was conducted using the agar well diffusion method using nutrient agar (NA) medium and Sabourand dextrose agar (SDA) medium for the tested pathological bacteria and yeast, respectively. […].
(§2) Antimicrobial tests were conducted via the agar well diffusion method using 100 μL of suspension containing 1 × 10^8 CFU/mL pathological tested bacteria and 1 × 10^6 CFU/mL yeast spread on NA and SDA, respectively. After the media cooled and solidified, wells (10 mm in diameter) were made in the solidified agar and loaded with 100 μL of the tested compound solution prepared by dissolving 10 mg of the chemical compound in 1 mL dimethyl sulfoxide (DMSO). The inoculated plates were then incubated for 24 h at 37 °C for bacteria and yeast growth. DMSO served as negative control. Ciprofloxacin (10 mg/mL) and ketoconazole (10 mg/mL) were used as standards for antibacterial and antifungal activity, respectively. After incubation, antimicrobial activity was evaluated by measuring the zone of inhibition against the test organisms and compared with that of the standard. Antimicrobial activities were expressed as the diameter of the inhibition zone (IZ) in mm. The experiment was carried out in triplicate and the average zone of inhibition was calculated.

[2] = test system: Candida albicans NRRL Y-477; assay: MIC, two-fold serial dilution, C. albicans; type: cell-based; settings: NRRLY477, read-out: Minimum inhibitory concentration, CA
Text: as §1
(§3) The bacteriostatic activity of the active compounds (having IZ > 16 mm) was then evaluated using the two-fold serial dilution technique. Two-fold serial dilutions of the tested compounds solutions were prepared using the proper nutrient broth to reach final concentrations of 1000, 500, 250, and 125 μg/mL. The tubes were then inoculated with the test microorganisms grown in their suitable broth at 37 °C for 24 h (1 × 10^8 CFU/mL for bacteria and 1 × 10^6 CFU/mL of yeast), 0.1 mL of the above inoculum was administered per 5 mL, and the tubes were incubated at 37 °C for 24 h. The lowest concentration showing no growth was taken as the MIC.

trypsin = assay: Proteinase-inhibitory activity; type: biochemical; settings: 250 µg/mL; mean ± SD (n = 3)
Description: The newly synthesised compounds were individually tested for their in vitro anti-inflammatory activity against proteinase enzyme. […] This test was performed at the Pharmacology Department, Medical Research Division, National Research Centre, Cairo, Egypt. Furthermore, compounds 2–8 were evaluated for their COX1/COX2 inhibitory activities.
The test was performed according to El-Serwy et al. with minor modifications. The reaction mixture (2 mL) contained 0.06 mg trypsin, 20 mM Tris HCl buffer (pH 7.4), and 1 mL test sample (250 µg/mL for each compound). After incubating for 5 min, 1 mL of 0.8% (w/v) casein was added. The mixture was incubated for an additional 20 min. The reaction was arrested by adding 1 mL of 10% perchloric acid. The cloudy suspension was centrifuged, and the absorbance of the supernatant was read at 280 nm. Reference standard aspirin was used as the positive control. The experiment was performed in triplicate. The percent inhibition of protein denaturation was calculated using the following Equation (2):(2) % Inhibition=100−A control −A test/A control×100 where Acontrol and Atest represent the absorbance of the control reaction without and with the sample, respectively.

[3] = test system: Staphylococcus aureus ATCC 29213; assay: Agar well diffusion, S. aureus; type: cell-based; settings: ATCC29213, 100 μL of 10 mg/mL in DMSO, read-out: diameter of inhibition zone, SA
Text: as §1, §2

tested microorganisms = assay: MIC, summary over the tested microorganisms; type: cell-based; settings: two-fold serial dilution; read-out: MIC against one or more tested microorganisms
Text: as §1, §3

[4] = test system: Bacillus megaterium ATCC 9885; assay: MIC, two-fold serial dilution, B. megaterium; type: cell-based; settings: Priestia megaterium, ATCC9885, read-out: Minimum inhibitory concentration, BM
Text: as §1, §3

[5] = test system: Bacillus megaterium ATCC 9885; assay: Agar well diffusion, B. megaterium; type: cell-based; settings: Priestia megaterium, ATCC9885, 100 μL of 10 mg/mL in DMSO, read-out: diameter of inhibition zone, BM
Text: as §1, §2

[6] = test system: Pseudomonas aeruginosa ATCC 27,953; assay: Agar well diffusion, P. aeruginosa; type: cell-based; settings: ATCC27, 100 μL of 10 mg/mL in DMSO, read-out: diameter of inhibition zone, PA
Text: as §1, §2

[7] = test system: Escherichia coli ATCC 2592; assay: MIC, two-fold serial dilution, E. coli; type: cell-based; settings: ATCC2592, read-out: Minimum inhibitory concentration, EC
Text: as §1, §3

[8] = test system: Staphylococcus aureus ATCC 29213; assay: MIC, two-fold serial dilution, S. aureus; type: cell-based; settings: ATCC29213, read-out: Minimum inhibitory concentration, SA
Text: as §1, §3

[9] = test system: Pseudomonas aeruginosa ATCC 27,953; assay: MIC, two-fold serial dilution, P. aeruginosa; type: cell-based; settings: ATCC27, read-out: Minimum inhibitory concentration, PA
Text: as §1, §3

[10] = test system: Bacillus subtilis ATCC 6633; assay: Agar well diffusion, B. subtilis; type: cell-based; settings: ATCC6633, 100 μL of 10 mg/mL in DMSO, read-out: diameter of inhibition zone, BS
Text: as §1, §2

[11] = test system: Bacillus subtilis ATCC 6633; assay: MIC, two-fold serial dilution, B. subtilis; type: cell-based; settings: ATCC6633, read-out: Minimum inhibitory concentration, BS
Text: as §1, §3

[12] = test system: Saccharomyces cerevisiae local isolate; assay: MIC, two-fold serial dilution, S. cerevisiae; type: cell-based; settings: two-fold serial dilution, S. cerevisiae, read-out: Minimum inhibitory concentration, SC
Text: as §1, §3

[13] = test system: Candida albicans NRRL Y-477; assay: Agar well diffusion, C. albicans; type: cell-based; settings: NRRLY477, 100 μL of 10 mg/mL in DMSO, read-out: diameter of inhibition zone, CA
Text: as §1, §2

[14] = DPPH antioxidant assay (radical scavenging); type: biochemical; settings: mean ± SD (n = 3)
Description: The antioxidant effects of the synthesised compounds were assessed using the 2,2-diphenyl-1-picrylhydrazyl (DPPH) antioxidant assay. Table 1 summarises the antioxidant effects of the test samples and ascorbic acid except for compound 5b because it was produced in poor yield.
The radical scavenging activity of the synthesised compounds was measured using the DPPH microplate-based method. The absorbance was measured using a microplate/cuvette reader (Spectramax M5, Molecular Devices, San Jose, CA, USA). Reference standard ascorbic acid was utilised as the positive control for this assay. Test samples were prepared at a starting concentration of 200 μg/mL after mixing with 100 μL of 0.2 mM DPPH methanolic solution. […] Samples were incubated with DPPH in the dark for 30 min at room temperature (25 °C). The methanolic DPPH solution was prepared daily and stored in a flask covered with aluminium foil. DPPH radicals have an absorption maximum (λmax) at 515 nm, at which the absorbance values were measured and converted into a percentage of antioxidant activity.
The methanolic DPPH solution without antioxidants was used as a control, and samples in methanol alone served as a background control. IC50 was determined using GraphPad Prism 7 (GraphPad Software Inc., San Diego, CA, USA). The percent inhibition was calculated using the following Equation (1):(1) % Inhibition=100−Sample Absorbance −Sample background Absorbance/DPPH only Absorbance×100
The assay was carried out in triplicate and performed as much as possible in an area protected against light. The data points are presented as the mean ± standard deviation (SD, n = 3).

[15] = test system: Escherichia coli ATCC 2592; assay: Agar well diffusion, E. coli; type: cell-based; settings: ATCC2592, 100 μL of 10 mg/mL in DMSO, read-out: diameter of inhibition zone, EC
Text: as §1, §2

With `Cc1ccc2oc(=O)c(S(=O)(=O)Nc3ccc(C(=O)/C=C/c4ccc(Cl)cc4)cc3)c(O)c2c1` [9d, (E)-N-(4-(3-(4-chlorophenyl)acryloyl)phenyl)-4-hydroxy-6-methyl-2-oxo-2H-chromene-3-sulfonamide] the zone of inhibition at 10000 µg/mL [1] was 31 to 32 mm, the MIC [2] was 125 µg/mL (≈ 252 µM) and the “% Inhibition (proteinase)” value (trypsin) was 31.88 ± 3.82%. It also gave a zone of inhibition at 10000 µg/mL [3] of 28 mm, an MIC (tested microorganisms) of 125 µg/mL (≈ 252 µM) and an MIC [4] of 250 µg/mL (≈ 504 µM). The melting point was 141 to 143 °C, the zone of inhibition at 10000 µg/mL [5] was 29 mm and the zone of inhibition at 10000 µg/mL [6] was 29 mm. For the same molecule, the MIC [7] was 250 µg/mL (≈ 504 µM), the MIC [8] was 250 µg/mL (≈ 504 µM) and the MIC [9] was 250 µg/mL (≈ 504 µM). For the same molecule, the zone of inhibition at 10000 µg/mL [10] was 29 mm, the MIC [11] was 250 µg/mL (≈ 504 µM) and the MIC [12] was 125 µg/mL (≈ 252 µM). The zone of inhibition at 10000 µg/mL [13] was 30 mm, the IC50 [14] was “— ((—): inactive (IC50 > 200 μg/mL))” and the zone of inhibition at 10000 µg/mL [15] was 38 mm.

In the case of `COc1ccc(/C=C/C(=O)c2ccc(NS(=O)(=O)c3c(O)c4cc(Cl)ccc4oc3=O)cc2)cc1` [9e, (E)-6-Chloro-4-hydroxy-N-(4-(3-(4-methoxyphenyl)acryloyl)phenyl)-2-oxo-2H-chromene-3-sulfonamide], the zone of inhibition at 10000 µg/mL [1] was 29 mm, the MIC [2] was 500 µg/mL (≈ 977 µM) and the “% Inhibition (proteinase)” value (trypsin) was 22.83 ± 4.88%. It also gave a zone of inhibition at 10000 µg/mL [3] of 23 mm, an MIC [4] of 500 µg/mL (≈ 977 µM) and a melting point greater than 300 °C. For the same molecule, the zone of inhibition at 10000 µg/mL [5] was 20 mm, the zone of inhibition at 10000 µg/mL [6] was 21 mm and the MIC [7] was 500 µg/mL (≈ 977 µM). It also gave an MIC [8] of 500 µg/mL (≈ 977 µM), an MIC [9] of 500 µg/mL (≈ 977 µM) and a zone of inhibition at 10000 µg/mL [10] of 21 mm. The MIC [11] was 500 µg/mL (≈ 977 µM), the MIC [12] was 250 µg/mL (≈ 488 µM) and the zone of inhibition at 10000 µg/mL [13] was 23 mm. For the same molecule, the IC50 [14] was “— ((—): inactive (IC50 > 200 μg/mL))” and the zone of inhibition at 10000 µg/mL [15] was 21 mm.

In the case of `COc1ccc(/C=C/C(=O)c2ccc(NS(=O)(=O)c3c(O)c4cc(C)ccc4oc3=O)cc2)cc1` [9f, (E)-4-Hydroxy-N-(4-(3-(4-methoxyphenyl)acryloyl)phenyl)-6-methyl-2-oxo-2H-chromene-3-sulfonamide], the zone of inhibition at 10000 µg/mL [1] was 26 mm, the MIC [2] was 500 µg/mL (≈ 1020 µM) and the “% Inhibition (proteinase)” value (trypsin) was 21.7 ± 7.6%. It also gave a zone of inhibition at 10000 µg/mL [3] of 25 mm, an MIC [4] of 250 µg/mL (≈ 509 µM) and a melting point greater than 300 °C. For the same molecule, the zone of inhibition at 10000 µg/mL [5] was 26 mm, the zone of inhibition at 10000 µg/mL [6] was 28 mm and the MIC [7] was 250 µg/mL (≈ 509 µM). It also gave an MIC [8] of 500 µg/mL (≈ 1020 µM), an MIC [9] of 250 µg/mL (≈ 509 µM) and a zone of inhibition at 10000 µg/mL [10] of 25 mm. It also gave an MIC [11] of 500 µg/mL (≈ 1020 µM), an MIC [12] of 500 µg/mL (≈ 1020 µM) and a zone of inhibition at 10000 µg/mL [13] of 24 mm. For the same molecule, the IC50 [14] was “— ((—): inactive (IC50 > 200 μg/mL))” and the zone of inhibition at 10000 µg/mL [15] was 26 mm.

Source: PMC7397269, “Synthesis and Evaluation of New Coumarin Derivatives as Antioxidant, Antimicrobial, and Anti-Inflammatory Agents” (Molecules, 2020)
